In ChEMBL document CHEMBL4622974, “Leveraging an Open Science Drug Discovery Model to Develop CNS-Penetrant ALK2 Inhibitors for the Treatment of Diffuse Intrinsic Pontine Glioma” (J Med Chem, 2020):

Tests used:
[1] = Drug level in NOD/SCID mouse brain at 25 mg/kg, po measured at 2 hr post dose on day 14 by LC-MS/MS analysis; format: ADME, organism-based; conditions: read-out: Drug uptake
[2] = Oral bioavailability in BALB/c mouse at 5 mg/kg by LC-MS/MS analysis; format: ADME, organism-based; conditions: in vivo
[3] = Ratio of drug level in brain to plasma in NOD/SCID mouse at 25 mg/kg, po measured at 2 hr post dose on day 14 by LC-MS/MS analysis; format: ADME, organism-based; conditions: read-out: BPR
[4] = Half life in BALB/c mouse at 5 mg/kg, po by LC-MS/MS analysis; format: ADME, organism-based; conditions: in vivo
[5] = Plasma concentration in NOD/SCID mouse at 25 mg/kg, po measured after 0.5 to 6 hrs; format: ADME, organism-based; conditions: in vivo
[6] = Drug uptake in NOD/SCID mouse at 25 mg/kg, po measured after 0.5 to 6 hrs; format: ADME, organism-based; conditions: in vivo
Activin receptor type-1B = target: T1, Activin receptor type-1B (Homo sapiens, UniProt P36896); assay: Inhibition of human ALK4 using casein as substrate in presence of [gamma-33P]-ATP by radiometric hotspot assay; format: ADME
T1 sequence (P36896 whole entry): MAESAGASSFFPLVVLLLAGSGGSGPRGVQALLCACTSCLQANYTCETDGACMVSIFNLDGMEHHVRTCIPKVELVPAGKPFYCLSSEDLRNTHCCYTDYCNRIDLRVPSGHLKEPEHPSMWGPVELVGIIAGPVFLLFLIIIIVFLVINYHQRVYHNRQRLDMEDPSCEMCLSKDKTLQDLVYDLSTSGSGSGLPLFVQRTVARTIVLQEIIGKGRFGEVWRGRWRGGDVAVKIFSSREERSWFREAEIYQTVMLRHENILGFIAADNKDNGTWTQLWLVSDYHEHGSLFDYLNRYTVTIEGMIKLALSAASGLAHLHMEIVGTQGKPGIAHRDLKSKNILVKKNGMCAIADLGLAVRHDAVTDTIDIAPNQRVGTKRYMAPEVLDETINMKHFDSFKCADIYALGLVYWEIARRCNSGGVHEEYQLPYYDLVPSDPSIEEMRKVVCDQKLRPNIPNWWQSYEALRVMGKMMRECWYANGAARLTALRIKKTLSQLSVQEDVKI

[7] = Apparent permeability across apical to basolateral side in human Caco2 cells at 5 uM after 120 mins by LC-MS/MS analysis; conditions: Caco-2
[8] = target: Voltage-gated inwardly rectifying potassium channel KCNH2 (Homo sapiens, UniProt Q12809); assay: Inhibition of human ERG expressed in HEK293 cells after 5 mins by IonWorks barracuda patch clamp method; format: cell-based
[9] = Cmax in CB17 SCID mouse at 10 mg/kg, po after 0.25 to 24 hrs by LC/MS/MS method; format: ADME, organism-based; set-up: dose 10 mg/kg, route oral; conditions: in vivo
[10] = Stability in CD1 mouse liver microsomes assessed as compound remaining at 1 uM incubated for 60 mins by LC/MS analysis; format: ADME, Microsome; conditions: read-out: Stability
[11] = Apparent permeability across basolateral to apical side in human Caco2 cells at 5 uM after 120 mins by LC-MS/MS analysis; format: ADME, cell-based; conditions: Caco-2
[12] = Stability in human liver microsomes assessed as compound remaining at 1 uM incubated for 60 mins by LC/MS analysis; format: ADME, Microsome; conditions: read-out: Stability
Activin receptor type-1 [13] = target: T2, Activin receptor type-1 (Homo sapiens, UniProt Q04771); assay: Competitive displacement of PBI-6908 from nanoluciferase-fused ALK2 (unknown origin) expressed in HEK293 cells incubated for 2 hrs by NanoBRET NanoGlo substrate based NanoBRET assay; format: cell-based
T2 sequence (Q04771 whole entry): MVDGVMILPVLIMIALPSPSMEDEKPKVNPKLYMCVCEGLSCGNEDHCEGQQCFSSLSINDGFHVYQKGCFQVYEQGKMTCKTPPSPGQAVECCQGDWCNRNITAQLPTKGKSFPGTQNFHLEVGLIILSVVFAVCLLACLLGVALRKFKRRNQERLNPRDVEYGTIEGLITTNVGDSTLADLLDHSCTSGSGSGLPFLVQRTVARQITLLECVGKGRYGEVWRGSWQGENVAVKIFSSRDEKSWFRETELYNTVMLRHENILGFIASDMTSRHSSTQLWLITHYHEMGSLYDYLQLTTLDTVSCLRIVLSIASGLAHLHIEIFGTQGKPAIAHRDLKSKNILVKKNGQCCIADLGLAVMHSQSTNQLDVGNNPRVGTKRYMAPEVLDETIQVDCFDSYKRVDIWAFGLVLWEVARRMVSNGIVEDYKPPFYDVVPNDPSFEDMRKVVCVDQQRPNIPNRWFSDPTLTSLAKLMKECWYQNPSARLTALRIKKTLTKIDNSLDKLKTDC

[14] = Ratio of drug level in brain to plasma in CB17 SCID mouse at 10 mg/kg, po measured at 4 h; format: ADME, organism-based; conditions: brain and plasma, read-out: BPR
TGF-beta receptor type-1 [15] = target: T3, TGF-beta receptor type-1 (Homo sapiens, UniProt P36897); assay: Inhibition of recombinant human ALK5 expressed in HEK293 cells transfected with CAGA-luciferase and Renilla luciferase reporter after 24 hrs by dual luciferase reporter assay; format: cell-based
T3 sequence (P36897 whole entry): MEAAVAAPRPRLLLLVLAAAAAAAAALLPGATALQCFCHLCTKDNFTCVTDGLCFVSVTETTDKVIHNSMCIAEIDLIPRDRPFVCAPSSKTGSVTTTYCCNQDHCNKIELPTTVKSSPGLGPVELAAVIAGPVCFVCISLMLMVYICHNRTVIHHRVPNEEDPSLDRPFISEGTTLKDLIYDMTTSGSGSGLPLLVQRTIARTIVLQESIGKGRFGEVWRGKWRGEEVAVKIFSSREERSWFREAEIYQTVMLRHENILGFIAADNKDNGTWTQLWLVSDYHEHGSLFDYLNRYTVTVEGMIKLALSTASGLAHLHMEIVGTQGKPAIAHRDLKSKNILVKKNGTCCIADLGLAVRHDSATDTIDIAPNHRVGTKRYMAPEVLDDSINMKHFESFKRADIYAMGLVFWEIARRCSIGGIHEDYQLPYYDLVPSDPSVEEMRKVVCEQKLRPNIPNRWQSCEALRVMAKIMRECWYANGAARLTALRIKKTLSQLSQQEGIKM

[16] = Volume of distribution at steady state in CB17 SCID mouse at 2 mg/kg, iv after 0.25 to 24 hrs by LC/MS/MS method; format: ADME, organism-based; conditions: in vivo, read-out: Vdss
[17] = Half life in CD1 mouse liver microsomes at 1 uM incubated for 60 mins by LC/MS analysis; format: ADME, Microsome
[18] = AUCinfinity in CB17 SCID mouse at 10 mg/kg, po after 0.25 to 24 hrs by LC/MS/MS method; format: ADME, organism-based; set-up: dose 10 mg/kg, time infinity, route oral; conditions: in vivo
Activin receptor type-1 [19] = target: T2, Activin receptor type-1; assay: Inhibition of human ALK2 using casein as substrate in presence of [gamma-33P]-ATP by radiometric hotspot assay
[20] = Half life in human liver microsomes at 1 uM incubated for 60 mins by LC/MS analysis; format: ADME, Microsome
[21] = Efflux ratio of apparent permeability across basolateral to apical over apical to basolateral side in human Caco2 cells at 5 uM incubated for 2 hrs by LC/MS/MS analysis; conditions: Caco-2
TGF-beta receptor type-1 [22] = target: T3, TGF-beta receptor type-1; assay: Inhibition of human ALK5 using casein as substrate in presence of [gamma-33P]-ATP by radiometric hotspot assay; format: ADME
[23] = Clearance in CB17 SCID mouse at 2 mg/kg, iv after 0.25 to 24 hrs by LC/MS/MS method; format: ADME, organism-based; conditions: in vivo
[24] = Toxicity in CB17 SCID mouse assessed as induction of adverse effect at 10 mg/kg, po; format: organism-based; conditions: in vivo
[25] = Half life in CB17 SCID mouse at 10 mg/kg, po after 0.25 to 24 hrs by LC/MS/MS method; format: ADME, organism-based; conditions: in vivo
[26] = Toxicity in CB17 SCID mouse assessed as induction of adverse effect at 2 mg/kg, iv; format: organism-based; conditions: in vivo
[27] = Oral bioavailability in CB17 SCID mouse at 10 mg/kg after 0.25 to 24 hrs by LC/MS/MS method; format: ADME, organism-based; conditions: in vivo

Chain of Voltage-gated inwardly rectifying potassium channel KCNH2 (Q12809 whole entry): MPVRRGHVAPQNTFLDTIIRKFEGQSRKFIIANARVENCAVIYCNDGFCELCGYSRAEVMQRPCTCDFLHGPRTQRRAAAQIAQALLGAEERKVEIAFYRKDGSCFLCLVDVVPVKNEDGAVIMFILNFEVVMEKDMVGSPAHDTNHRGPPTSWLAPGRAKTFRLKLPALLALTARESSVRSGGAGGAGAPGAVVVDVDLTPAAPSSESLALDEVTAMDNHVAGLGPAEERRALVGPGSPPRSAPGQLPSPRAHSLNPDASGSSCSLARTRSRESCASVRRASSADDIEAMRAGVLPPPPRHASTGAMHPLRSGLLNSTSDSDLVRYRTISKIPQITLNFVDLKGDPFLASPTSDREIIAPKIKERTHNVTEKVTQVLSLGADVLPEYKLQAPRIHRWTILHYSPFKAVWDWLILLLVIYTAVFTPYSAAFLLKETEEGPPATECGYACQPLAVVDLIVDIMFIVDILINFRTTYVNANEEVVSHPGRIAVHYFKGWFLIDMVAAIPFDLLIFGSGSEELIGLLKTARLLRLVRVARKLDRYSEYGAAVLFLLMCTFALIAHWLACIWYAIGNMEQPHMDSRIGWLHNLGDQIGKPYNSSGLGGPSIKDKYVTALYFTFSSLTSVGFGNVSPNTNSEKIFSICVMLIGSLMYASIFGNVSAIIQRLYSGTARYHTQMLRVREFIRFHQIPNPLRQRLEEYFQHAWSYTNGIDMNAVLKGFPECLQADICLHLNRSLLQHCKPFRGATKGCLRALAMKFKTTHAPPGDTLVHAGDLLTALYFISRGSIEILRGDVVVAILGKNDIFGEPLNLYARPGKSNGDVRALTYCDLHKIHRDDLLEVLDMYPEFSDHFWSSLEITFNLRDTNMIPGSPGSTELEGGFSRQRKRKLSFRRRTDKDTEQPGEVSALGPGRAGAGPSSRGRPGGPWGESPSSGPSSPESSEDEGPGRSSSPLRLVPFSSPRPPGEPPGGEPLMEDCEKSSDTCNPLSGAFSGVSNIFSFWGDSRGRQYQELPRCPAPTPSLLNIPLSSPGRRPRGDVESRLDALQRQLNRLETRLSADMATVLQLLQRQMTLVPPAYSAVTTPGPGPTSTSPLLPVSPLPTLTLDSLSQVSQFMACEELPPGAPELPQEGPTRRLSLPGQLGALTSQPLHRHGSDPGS

## COc1cc(-c2cc(-c3ccc(N4CCNCC4)cc3)cnc2C)cc(OC)c1OC
[1]
  concentration at 2 h: 10.9 µM
[2]
  bioavailability: 75%
[3]
  Kp at 2 h: 0.8
[4]
  half-life: 3.91 h

## COc1cc(-c2cncc(-c3ccc(N4CCNCC4)cc3)c2C)cc(OC)c1OC
[5]
  concentration: 9.11 µM

## COc1cc(-c2cncc(-c3ccc(N4CCNCC4)cc3)c2C)cc(OC)c1OC.CS(=O)(=O)O
[6]
  Drug uptake: Active

## COc1cc(-c2cncc(-c3ccc(C4=CCNCC4)cc3)c2C)cc(OC)c1OC
Activin receptor type-1B
  IC50: > 2000 nM
[7]
  Papp A→B at 2 h, 5 µM: 2.9 ×10⁻⁶ cm/s
[8]
  IC50: 3400 nM
[9]
  Cmax: 6.62 µM
[10]
  remaining at 1 h, 1 µM: 73.9%
[11]
  Papp B→A at 2 h, 5 µM: 3.9 ×10⁻⁶ cm/s
[12]
  remaining at 1 h, 1 µM: 68%
Activin receptor type-1 [13]
  IC50: 47 nM
[14]
  Kp at 4 h: 0.43
TGF-beta receptor type-1 [15]
  IC50: 7530 nM
[16]
  Vd: 1.66 L/kg
[17]
  half-life at 1 µM: > 1 h
[18]
  AUC(0-inf): 82.5 µM·h
Activin receptor type-1 [19]
  IC50: 5 nM
[20]
  half-life at 1 µM: > 1 h
[21]
  efflux ratio at 2 h, 5 µM: 1.3
TGF-beta receptor type-1 [22]
  IC50: > 5000 nM
[23]
  clearance: 3.84 mL/min/kg
[24]
  Activity: Non-Toxic
[25]
  half-life: 6.02 h
[26]
  Activity: Non-Toxic
[27]
  bioavailability: 79%
